Patent US9963467B2, “Boronic acid derivatives and therapeutic uses thereof” (Rempex Pharmaceuticals, Inc., priority 2014, dated 2018)

Tests used:
[1] = molecular target: Pa AmpC (Pseudomonas aeruginosa, UniProt P24735); test: Ki, nitrocefin cleavage by purified enzyme, Pa AmpC; format: biochemical; conditions: nitrocefin reporter substrate; read-out: Ki (Pa AmpC, NCF)
Procedure, shortened: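 Purified enzymes are exposed to inhibitor concentrations in reaction buffer for 10 min at room temperature. Nitrocefin is then added. Cleavage is read at 490 nm every 10 sec for 10 min, giving Ki.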

[2] = test system: EC1010 (CMY-6); test: Tigemonam potentiation (MPC@4), EC1010; format: cell-based; conditions: BLI with tigemonam at 4 μg/mL
[3] = test system: KP1005 (CTX-M-14); test: Tigemonam potentiation (MPC@4), KP1005; format: cell-based; conditions: BLI with tigemonam at 4 μg/mL
[4] = test system: ec302 (TEM-10); test: Tigemonam potentiation (MPC@4), ec302; format: cell-based
[5] = test system: ec302 (TEM-10); test: Aztreonam potentiation (MPC@4), ec302; format: cell-based; conditions: BLI with aztreonam at 4 μg/mL
[6] = test system: PAM1032/KPC-2; test: Biapenem potentiation MPC64, PAM1032/KPC-2 (efflux proficient); format: cell-based, Pseudomonas aeruginosa; conditions: BLI to decrease MIC of biapenem 64-fold; MexAB-OprM overexpressed
Method: Efflux of BLIs from Pseudomonas aeruginosa by the MexAB-OprM efflux pump was also evaluated. […] Due to expression of KPC-2 both strains became resistant to biapenem. […] Potency of BLIs to potentiate biapenem in these strains was determined. […] The ratio of MPC64 values for each BLI in PAM1032/KPC-2 (efflux proficient) and PAM1154/KPC-2 (efflux deficient) was determined to generate the Efflux Index (EI).

[7] = test system: ec308 (SHV-5); test: Tigemonam potentiation (MPC@4), ec308; format: cell-based
[8] = test system: KP1086 (OXA-48); test: Biapenem potentiation (MPC@1), KP1086; conditions: BLI with biapenem at 1 μg/mL
[9] = test system: KP1004 (KPC-2); test: Biapenem potentiation (MPC@1), KP1004; conditions: BLI with biapenem at 1 μg/mL
[10] = test system: KP1009 (CTX-M-15); test: Tigemonam potentiation (MPC@4), KP1009; format: cell-based; conditions: BLI with tigemonam at 4 μg/mL
[11] = test system: KP1010 (SHV-12); test: Aztreonam potentiation (MPC@4), KP1010; format: cell-based
[12] = test system: ECL1002; test: Aztreonam potentiation (MPC@4), ECL1002; format: cell-based; conditions: BLI with aztreonam at 4 μg/mL
[13] = test system: KP1005 (CTX-M-14); test: Aztreonam potentiation (MPC@4), KP1005; format: cell-based; conditions: BLI with aztreonam at 4 μg/mL
[14] = test system: ec308 (SHV-5); test: Aztreonam potentiation (MPC@4), ec308; format: cell-based; conditions: BLI with aztreonam at 4 μg/mL
[15] = test system: ECL1002; test: Tigemonam potentiation (MPC@4), ECL1002; format: cell-based; conditions: BLI with tigemonam at 4 μg/mL
[16] = test system: KP1010 (SHV-12); test: Tigemonam potentiation (MPC@4), KP1010; format: cell-based
[17] = test system: EC1010 (CMY-6); test: organism not typed; format: cell-based
[18] = molecular target: P99 (Enterobacter cloacae, UniProt P05364); test: Ki, nitrocefin cleavage by purified enzyme, P99; format: biochemical; conditions: nitrocefin reporter substrate; read-out: Ki (P99, NCF)
Chain of P99 (P05364 21-381): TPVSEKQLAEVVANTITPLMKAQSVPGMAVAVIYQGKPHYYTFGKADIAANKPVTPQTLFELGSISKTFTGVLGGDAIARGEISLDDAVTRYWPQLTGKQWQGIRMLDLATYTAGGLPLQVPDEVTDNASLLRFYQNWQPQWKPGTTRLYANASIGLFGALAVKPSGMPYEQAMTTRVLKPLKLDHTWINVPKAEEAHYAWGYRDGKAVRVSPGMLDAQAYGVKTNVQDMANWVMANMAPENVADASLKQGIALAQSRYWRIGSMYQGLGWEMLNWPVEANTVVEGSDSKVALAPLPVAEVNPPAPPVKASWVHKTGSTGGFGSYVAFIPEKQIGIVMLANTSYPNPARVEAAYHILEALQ
Procedure, shortened: (§1)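 10 min RT preincubation, enzyme with inhibitor series in reaction buffer. Substrate nitrocefin; kinetic read 490 nm, 10 sec intervals, 10 min total.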

[19] = molecular target: SHV-12 (Klebsiella pneumoniae, UniProt P0AD64, E235K/G234S/L31Q); test: Ki, nitrocefin cleavage by purified enzyme, SHV-12; format: biochemical; conditions: nitrocefin reporter substrate; read-out: Ki (SHV-12, NCF)
Chain of SHV-12 (P0AD64 22-286 L31Q/G234S/E235K): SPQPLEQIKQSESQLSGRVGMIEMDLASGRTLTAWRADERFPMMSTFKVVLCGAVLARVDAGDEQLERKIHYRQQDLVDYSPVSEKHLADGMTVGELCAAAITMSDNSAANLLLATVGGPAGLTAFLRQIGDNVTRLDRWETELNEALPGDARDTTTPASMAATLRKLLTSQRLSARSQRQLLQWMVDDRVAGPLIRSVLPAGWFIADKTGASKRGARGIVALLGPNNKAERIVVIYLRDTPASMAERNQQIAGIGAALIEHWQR
Procedure, shortened: as §1

[20] = molecular target: OXA-48 (Klebsiella pneumoniae, UniProt Q6XEC0); test: Ki, nitrocefin cleavage by purified enzyme, OXA-48; format: biochemical; conditions: nitrocefin reporter substrate; read-out: Ki (OXA-48, NCF)
Chain of OXA-48 (Q6XEC0 23-265, looked up, species assumed): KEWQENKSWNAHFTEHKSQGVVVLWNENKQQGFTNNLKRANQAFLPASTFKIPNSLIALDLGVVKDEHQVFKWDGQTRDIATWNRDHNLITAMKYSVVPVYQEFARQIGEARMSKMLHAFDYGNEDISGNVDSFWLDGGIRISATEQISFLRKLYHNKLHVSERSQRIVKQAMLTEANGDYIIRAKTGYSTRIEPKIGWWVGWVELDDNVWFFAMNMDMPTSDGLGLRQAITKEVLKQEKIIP
Procedure, shortened: as §1

[21] = molecular target: KPC-2 (Klebsiella pneumoniae, UniProt Q9F663); test: Ki, nitrocefin cleavage by purified enzyme, KPC-2; format: biochemical; conditions: nitrocefin reporter substrate; read-out: Ki (KPC-2, NCF)
Chain of KPC-2 (Q9F663 25-293, looked up, species assumed): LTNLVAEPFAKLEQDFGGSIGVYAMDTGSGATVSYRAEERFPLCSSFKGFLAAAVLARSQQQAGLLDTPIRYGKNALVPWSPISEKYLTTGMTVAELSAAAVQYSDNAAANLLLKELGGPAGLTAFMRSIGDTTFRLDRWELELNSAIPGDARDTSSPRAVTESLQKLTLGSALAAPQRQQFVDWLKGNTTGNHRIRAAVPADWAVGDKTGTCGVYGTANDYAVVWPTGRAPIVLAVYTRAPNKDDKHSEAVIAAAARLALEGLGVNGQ
Procedure, shortened: as §1

[22] = molecular target: CTX-M-14 (Escherichia coli, UniProt Q9L5C7); test: Ki, nitrocefin cleavage by purified enzyme, CTX-M-14; format: biochemical; conditions: nitrocefin reporter substrate; read-out: Ki (CTX-M-14, NCF)
Chain of CTX-M-14 (Q9L5C7 29-291): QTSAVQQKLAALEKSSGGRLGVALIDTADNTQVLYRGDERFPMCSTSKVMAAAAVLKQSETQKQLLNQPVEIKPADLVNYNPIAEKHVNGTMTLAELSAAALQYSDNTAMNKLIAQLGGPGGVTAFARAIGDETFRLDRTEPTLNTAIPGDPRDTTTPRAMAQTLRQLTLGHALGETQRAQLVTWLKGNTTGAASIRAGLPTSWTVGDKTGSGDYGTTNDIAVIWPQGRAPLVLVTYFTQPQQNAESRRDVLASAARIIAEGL
Procedure, shortened: as §1

[23] = test system: KP1004 (KPC-2); test: Aztreonam potentiation (MPC@4), KP1004; format: cell-based; conditions: BLI with aztreonam at 4 μg/mL
[24] = test system: KP1009 (CTX-M-15); test: organism not typed; format: cell-based

Chain of Pa AmpC (P24735 27-397): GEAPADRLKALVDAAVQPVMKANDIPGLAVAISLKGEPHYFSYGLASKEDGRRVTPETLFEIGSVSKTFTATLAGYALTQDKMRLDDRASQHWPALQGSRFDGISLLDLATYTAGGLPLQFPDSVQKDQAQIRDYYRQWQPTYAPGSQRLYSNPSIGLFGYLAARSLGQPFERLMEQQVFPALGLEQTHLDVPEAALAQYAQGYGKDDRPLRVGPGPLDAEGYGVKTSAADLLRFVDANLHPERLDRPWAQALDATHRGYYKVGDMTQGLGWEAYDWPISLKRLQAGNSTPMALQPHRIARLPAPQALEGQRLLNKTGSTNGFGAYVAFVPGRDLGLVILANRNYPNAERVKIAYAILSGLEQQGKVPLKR

O=C(CSC1CNC1)N[C@H]1Cc2cccc(C(=O)O)c2OB1O [B, reference compound]
Ki [1]: 1 to 10 nM | TIG MPC4 CMY-6 EC1010 [2]: X (MIC of less than 1 μg/mL) | TIG MPC4 CTX-M-14 KP1005 [3]: Y (MIC of 1 μg/mL to 10 μg/mL) | TIG MPC4 TEM-10 ec302 [4]: Z (key: X: MIC of less than 1 ng/mL; Y: MIC of 1 μg/mL to 10 μg/mL; Z: MIC of greater than 10 μg/mL) | AZT MPC4 TEM-10 ec302 [5]: Y (MIC of 1 μg/mL to 10 μg/mL) | PAM1032/KPC-2 Biapenem MPC64 [6]: 2.5 | TIG MPC4 SHV-5 ec308 [7]: Y (key: X: MIC of less than 1 ng/mL; Y: MIC of 1 μg/mL to 10 μg/mL; Z: MIC of greater than 10 μg/mL)

O=C(CSC(F)F)N[C@H]1Cc2cccc(C(=O)O)c2OB1O [C, reference compound]
BPM MPC1 OXA-48 KP1086 [8]: Y (MIC of 1 μg/mL to 10 μg/mL) | BPM MPC1 KP1004 KPC-2 [9]: X (MIC of less than 1 μg/mL) | TIG MPC4 CTX-M-15 KP1009 [10]: X (MIC of less than 1 μg/mL) | AZT MPC4 SHV-12 KP1010 [11]: X (key: X: MIC of less than 1 ng/mL; Y: MIC of 1 μg/mL to 10 μg/mL; Z: MIC of greater than 10 μg/mL) | Ki [1]: < 1 nM | AZT MPC4 ECL1002 [12]: Y (MIC of 1 μg/mL to 10 μg/mL) | AZT MPC4 CTX-M-14 KP1005 [13]: X (MIC of less than 1 ng/mL) | AZT MPC4 SHV-5 ec308 [14]: X (MIC of less than 1 ng/mL) | TIG MPC4 CTX-M-14 KP1005 [3]: X (MIC of less than 1 μg/mL) | TIG MPC4 ECL1002 [15]: Y (MIC of 1 μg/mL to 10 μg/mL) | TIG MPC4 SHV-12 KP1010 [16]: X (key: X: MIC of less than 1 μg/mL; Y: MIC of 1 μg/mL to 10 μg/mL; Z: MIC of greater than 10 μg/mL) | TIG MPC4 TEM-10 ec302 [4]: Y (key: X: MIC of less than 1 ng/mL; Y: MIC of 1 μg/mL to 10 μg/mL; Z: MIC of greater than 10 μg/mL) | AZT MPC4 CMY-6 EC1010 [17]: X (key: X: MIC of less than 1 ng/mL; Y: MIC of 1 μg/mL to 10 μg/mL; Z: MIC of greater than 10 μg/mL) | Ki [18]: 1 to 10 nM | PAM1032/KPC-2 Biapenem MPC64 [6]: 80 | TIG MPC4 SHV-5 ec308 [7]: X (key: X: MIC of less than 1 μg/mL; Y: MIC of 1 μg/mL to 10 μg/mL; Z: MIC of greater than 10 μg/mL)

O=C(O)CC(=O)N[C@H]1Cc2cccc(C(=O)O)c2OB1O [D, reference compound]
Ki [19]: 1 to 10 nM | BPM MPC1 OXA-48 KP1086 [8]: Y (MIC of 1 μg/mL to 10 μg/mL) | Ki [20]: < 1 nM | BPM MPC1 KP1004 KPC-2 [9]: X (MIC of less than 1 μg/mL) | TIG MPC4 CTX-M-15 KP1009 [10]: Y (MIC of 1 μg/mL to 10 μg/mL) | AZT MPC4 SHV-12 KP1010 [11]: Y (key: X: MIC of less than 1 ng/mL; Y: MIC of 1 μg/mL to 10 μg/mL; Z: MIC of greater than 10 μg/mL) | Ki [1]: > 10 nM | AZT MPC4 ECL1002 [12]: Y (MIC of 1 μg/mL to 10 μg/mL) | AZT MPC4 CTX-M-14 KP1005 [13]: Y (MIC of 1 μg/mL to 10 μg/mL) | TIG MPC4 CMY-6 EC1010 [2]: X (MIC of less than 1 μg/mL) | Ki [21]: > 10 nM | AZT MPC4 SHV-5 ec308 [14]: Y (MIC of 1 μg/mL to 10 μg/mL) | Ki [22]: < 1 nM | TIG MPC4 CTX-M-14 KP1005 [3]: Z (MIC of greater than 10 μg/mL) | TIG MPC4 ECL1002 [15]: X (MIC of less than 1 μg/mL) | TIG MPC4 SHV-12 KP1010 [16]: Y (key: X: MIC of less than 1 ng/mL; Y: MIC of 1 μg/mL to 10 μg/mL; Z: MIC of greater than 10 μg/mL) | AZT MPC4 KPC-2 KP1004 [23]: Y (MIC of 1 μg/mL to 10 μg/mL) | TIG MPC4 TEM-10 ec302 [4]: Z (key: X: MIC of less than 1 ng/mL; Y: MIC of 1 μg/mL to 10 μg/mL; Z: MIC of greater than 10 μg/mL) | AZT MPC4 TEM-10 ec302 [5]: Z (MIC of greater than 10 μg/mL) | Ki [18]: > 10 nM | TIG MPC4 SHV-5 ec308 [7]: Y (key: X: MIC of less than 1 ng/mL; Y: MIC of 1 μg/mL to 10 μg/mL; Z: MIC of greater than 10 μg/mL) | AZT MPC4 CTX-M-15 KP1009 [24]: Y (key: X: MIC of less than 1 ng/mL; Y: MIC of 1 μg/mL to 10 μg/mL; Z: MIC of greater than 10 μg/mL)

CNC(=O)CC(=O)N[C@H]1Cc2cccc(C(=O)O)c2OB1O [G, reference compound]
AZT MPC4 CTX-M-14 KP1005 [13]: Y (MIC of 1 μg/mL to 10 μg/mL) | TIG MPC4 CMY-6 EC1010 [2]: X (MIC of less than 1 μg/mL) | Ki [22]: < 1 nM | TIG MPC4 CTX-M-14 KP1005 [3]: Y (MIC of 1 μg/mL to 10 μg/mL) | TIG MPC4 TEM-10 ec302 [4]: Z (key: X: MIC of less than 1 ng/mL; Y: MIC of 1 μg/mL to 10 μg/mL; Z: MIC of greater than 10 μg/mL) | AZT MPC4 TEM-10 ec302 [5]: Y (MIC of 1 μg/mL to 10 μg/mL) | PAM1032/KPC-2 Biapenem MPC64 [6]: 40 | TIG MPC4 SHV-5 ec308 [7]: Y (key: X: MIC of less than 1 ng/mL; Y: MIC of 1 μg/mL to 10 μg/mL; Z: MIC of greater than 10 μg/mL)

Nc1nnc(C(=O)N[C@H]2Cc3cccc(C(=O)O)c3OB2O)s1 [H, reference compound]
BPM MPC1 OXA-48 KP1086 [8]: Y (MIC of 1 μg/mL to 10 μg/mL) | BPM MPC1 KP1004 KPC-2 [9]: X (MIC of less than 1 μg/mL) | TIG MPC4 CTX-M-15 KP1009 [10]: X (MIC of less than 1 μg/mL) | AZT MPC4 SHV-12 KP1010 [11]: X (key: X: MIC of less than 1 ng/mL; Y: MIC of 1 μg/mL to 10 μg/mL; Z: MIC of greater than 10 μg/mL) | Ki [1]: < 1 nM | AZT MPC4 CTX-M-14 KP1005 [13]: Y (MIC of 1 μg/mL to 10 μg/mL) | AZT MPC4 SHV-5 ec308 [14]: X (MIC of less than 1 ng/mL) | TIG MPC4 CTX-M-14 KP1005 [3]: Y (MIC of 1 μg/mL to 10 μg/mL) | TIG MPC4 ECL1002 [15]: X (MIC of less than 1 μg/mL) | TIG MPC4 SHV-12 KP1010 [16]: X (key: X: MIC of less than 1 μg/mL; Y: MIC of 1 μg/mL to 10 μg/mL; Z: MIC of greater than 10 μg/mL) | TIG MPC4 TEM-10 ec302 [4]: Y (key: X: MIC of less than 1 ng/mL; Y: MIC of 1 μg/mL to 10 μg/mL; Z: MIC of greater than 10 μg/mL) | AZT MPC4 CMY-6 EC1010 [17]: X (key: X: MIC of less than 1 ng/mL; Y: MIC of 1 μg/mL to 10 μg/mL; Z: MIC of greater than 10 μg/mL) | AZT MPC4 TEM-10 ec302 [5]: X (MIC of less than 1 ng/mL) | PAM1032/KPC-2 Biapenem MPC64 [6]: 80 | TIG MPC4 SHV-5 ec308 [7]: X (key: X: MIC of less than 1 μg/mL; Y: MIC of 1 μg/mL to 10 μg/mL; Z: MIC of greater than 10 μg/mL)
